{
  "source": "patent US20250026759A1",
  "about": "(Merck Sharp & Dohme LLC, priority 2023, published 2025)",
  "data": [
    {"system": "PBMCs infected with VSV-G pseudotyped HIV virus (VSV-G/pNLG1-P2A-ΔEnv)", "assay": "cells", "format": "cell-based, human", "details": "Homo sapiens, PBMC, read-out: TACK EC50", "units": {"EC50": "nM"}, "values": [
      {"smiles": "O=C1Nc2cc(Cn3c(=O)[nH]c4ccncc43)c(F)cc2[C@@](C#CC2CC2)(C(F)(F)F)N1", "note": "[Example 41, (S)-4-(cyclopropylethynyl)-6-fluoro-7-((2-oxo-1,2-dihydro-3H-imidazo[4,5-c]pyridin-3-yl)methyl)-4-(trifluoromethyl)-3,4-dihydroquinazolin-2(1H)-one]", "EC50": 26.1},
      {"smiles": "COCc1ncn(Cc2cc3c(cc2F)[C@@](C#CC2CC2)(C(C)(F)F)NC(=O)N3)n1", "note": "[Example 65, (S)-4-(cyclopropylethynyl)-4-(1,1-difluoroethyl)-6-fluoro-7-((3-(methoxymethyl)-1H-1,2,4-triazol-1-yl)methyl)-3,4-dihydroquinazolin-2(1H)-one]", "EC50": 38.1},
      {"smiles": "Cc1ccn(Cc2ccc3c(c2)NC(=O)N[C@]3(C#CC2CC2)C(F)(F)F)n1", "note": "[Example 127, (S)-4-(cyclopropylethynyl)-7-((3-methyl-1H-pyrazol-1-yl)methyl)-4-(trifluoromethyl)-3,4-dihydroquinazolin-2(1H)-one]", "EC50": 103},
      {"smiles": "Cc1cc(N)nn1Cc1cc2c(cc1F)[C@@](C#CC1CC1)(C(C)(F)F)NC(=O)N2", "note": "[Example 44, (S)-7-((3-amino-5-methyl-1H-pyrazol-1-yl)methyl)-4-(cyclopropylethynyl)-4-(1,1-difluoroethyl)-6-fluoro-3,4-dihydroquinazolin-2(1H)-one]", "EC50": 19.5},
      {"smiles": "CC(F)(F)[C@@]1(C#CC2CC2)NC(=O)Nc2cc(Cn3cc(C(F)F)cn3)c(F)cc21", "note": "[Example 121, (S)-4-(cyclopropylethynyl)-4-(1,1-difluoroethyl)-7-((4-(difluoromethyl)-1H-pyrazol-1-yl)methyl)-6-fluoro-3,4-dihydroquinazolin-2(1H)-one]", "EC50": 67.9},
      {"smiles": "CN1CC(=O)N(Cc2cc3c(cc2F)[C@@](C#CC2CC2)(C(C)(F)F)NC(=O)N3)C1=O", "note": "[Example 110, (S)-3-((4-(cyclopropylethynyl)-4-(1,1-difluoroethyl)-6-fluoro-2-oxo-1,2,3,4-tetrahydroquinazolin-7-yl)methyl)-1-methylimidazolidine-2,4-dione]", "EC50": 43.9},
      {"smiles": "O=C1Nc2cc(Cn3cc4cncnc4n3)c(F)cc2[C@@](C#CC2CC2)(C(F)(F)F)N1", "note": "[Example 27, (S)-7-((2H-pyrazolo[3,4-d]pyrimidin-2-yl)methyl)-4-(cyclopropylethynyl)-6-fluoro-4-(trifluoromethyl)-3,4-dihydroquinazolin-2(1H)-one]", "EC50": 82.6},
      {"smiles": "O=C1Nc2cc(Cn3c(C4CC4)n[nH]c3=O)c(F)cc2[C@@](C#CC2CC2)(C(F)(F)F)N1", "note": "[Example 37, (S)-7-((3-cyclopropyl-5-oxo-1,5-dihydro-4H-1,2,4-triazol-4-yl)methyl)-4-(cyclopropylethynyl)-6-fluoro-4-(trifluoromethyl)-3,4-dihydroquinazolin-2(1H)-one]", "EC50": 42.9},
      {"smiles": "CC(F)(F)[C@@]1(C#CC2CC2)NC(=O)Nc2cc(Cn3ncc4ccccc43)c(F)cc21", "note": "[Example 91, (S)-7-((1H-indazol-1-yl)methyl)-4-(cyclopropylethynyl)-4-(1,1-difluoroethyl)-6-fluoro-3,4-dihydroquinazolin-2(1H)-one]", "EC50": 27.3},
      {"smiles": "CC(F)(F)[C@@]1(C#CC2CC2)NC(=O)Nc2cc(Cn3cncc3CO)c(F)cc21", "note": "(single isomer, unassigned) [Example 50]", "EC50": 68.1},
      {"smiles": "CC(F)(F)[C@@]1(C#CC2CC2)NC(=O)Nc2cc(Cn3cnc(N)n3)c(F)cc21", "note": "[Example 106, (S)-7-((3-amino-1H-1,2,4-triazol-1-yl)methyl)-4-(cyclopropylethynyl)-4-(1,1-difluoroethyl)-6-fluoro-3,4-dihydroquinazolin-2(1H)-one]", "EC50": 16.8},
      {"smiles": "O=C1Nc2cc(Cn3nccc3CO)c(F)cc2[C@@](C#CC2CC2)(C(F)(F)F)N1", "note": "(single isomer, unassigned) [Example 5]", "EC50": 109},
      {"smiles": "CN1C(=O)Nc2cc(CN3C(=O)CNC3=O)c(F)cc2[C@@]1(C#CC1CC1)C(F)(F)F", "note": "[Example 42, (S)-3-((4-(cyclopropylethynyl)-6-fluoro-3-methyl-2-oxo-4-(trifluoromethyl)-1,2,3,4-tetrahydroquinazolin-7-yl)methyl)imidazolidine-2,4-dione]", "EC50": 38.8},
      {"smiles": "O=C1Nc2cc(Cn3ccc(CO)n3)c(F)cc2[C@@](C#CC2CC2)(C(F)(F)F)N1", "note": "(single isomer, unassigned) [Example 6]", "EC50": 17.1},
      {"smiles": "COCc1cnn(Cc2cc3c(cc2F)[C@@](C#CC2CC2)(C(C)(F)F)NC(=O)N3)c1", "note": "[Example 64, (S)-4-(cyclopropylethynyl)-4-(1,1-difluoroethyl)-6-fluoro-7-((4-(methoxymethyl)-1H-pyrazol-1-yl)methyl)-3,4-dihydroquinazolin-2(1H)-one]", "EC50": 34},
      {"smiles": "COc1cn(Cc2cc3c(cc2F)[C@@](C#CC2CC2)(C(C)(F)F)NC(=O)N3)nc1N", "note": "[Example 99, (S)-7-((3-amino-4-methoxy-1H-pyrazol-1-yl)methyl)-4-(cyclopropylethynyl)-4-(1,1-difluoroethyl)-6-fluoro-3,4-dihydroquinazolin-2(1H)-one]", "EC50": 13.1},
      {"smiles": "CC(F)(F)[C@@]1(C#CC2CC2)NC(=O)Nc2cc(Cn3ccnc3CO)c(F)cc21", "note": "[Example 49, (S)-4-(cyclopropylethynyl)-4-(1,1-difluoroethyl)-6-fluoro-7-((2-(hydroxymethyl)-1H-imidazol-1-yl)methyl)-3,4-dihydroquinazolin-2(1H)-one]", "EC50": 41.8},
      {"smiles": "O=C1Nc2cc(Cn3ncc4ccncc43)c(F)cc2[C@@](C#CC2CC2)(C(F)(F)F)N1", "note": "(single isomer, unassigned) [Example 25]", "EC50": 59.9},
      {"smiles": "COCc1ccn(Cc2cc3c(cc2F)[C@@](C#CC2CC2)(C(F)(F)F)NC(=O)N3)n1", "note": "[Example 30, (S)-4-(cyclopropylethynyl)-6-fluoro-7-((3-(methoxymethyl)-1H-pyrazol-1-yl)methyl)-4-(trifluoromethyl)-3,4-dihydroquinazolin-2(1H)-one]", "EC50": 36.5},
      {"smiles": "CC(F)(F)[C@@]1(C#CC2CC2)NC(=O)Nc2cc(Cn3ccc(C=O)n3)c(F)cc21", "note": "[Example 102, (S)-1-((4-(cyclopropylethynyl)-4-(1,1-difluoroethyl)-6-fluoro-2-oxo-1,2,3,4-tetrahydroquinazolin-7-yl)methyl)-1H-pyrazole-3-carbaldehyde]", "EC50": 26.8},
      {"smiles": "N#Cc1c[nH]c(C(=O)NCc2cc3c(cc2F)[C@@](C#CC2CC2)(C(F)(F)F)NC(=O)N3)c1", "note": "[Example 88, (S)-4-cyano-N-((4-(cyclopropylethynyl)-6-fluoro-2-oxo-4-(trifluoromethyl)-1,2,3,4-tetrahydroquinazolin-7-yl)methyl)-1H-pyrrole-2-carboxamide]", "EC50": 25.4},
      {"smiles": "COc1cnn(Cc2cc3c(cc2F)[C@@](C#CC2CC2)(C(C)(F)F)NC(=O)N3)c1", "note": "[Example 3, (S)-4-(cyclopropylethynyl)-4-(1,1-difluoroethyl)-6-fluoro-7-((4-methoxy-1H-pyrazol-1-yl)methyl)-3,4-dihydroquinazolin-2(1H)-one]", "EC50": 14.4},
      {"smiles": "Cc1n[nH]c(=O)n1Cc1cc2c(cc1F)[C@@](C#CC1CC1)(C(C)(F)F)NC(=O)N2", "note": "[Example 38, (S)-4-(cyclopropylethynyl)-4-(1,1-difluoroethyl)-6-fluoro-7-((3-methyl-5-oxo-1,5-dihydro-4H-1,2,4-triazol-4-yl)methyl)-3,4-dihydroquinazolin-2(1H)-one]", "EC50": 23},
      {"smiles": "O=C1Nc2cc(Cn3c(=O)oc4ccccc43)c(F)cc2[C@@](C#CC2CC2)(C(F)(F)F)N1", "note": "[Example 13, (S)-3-((4-(cyclopropylethynyl)-6-fluoro-2-oxo-4-(trifluoromethyl)-1,2,3,4-tetrahydroquinazolin-7-yl)methyl)benzo[d]oxazol-2(3H)-one]", "EC50": 14.3},
      {"smiles": "CC(F)(F)[C@@]1(C#CC2CC2)NC(=O)Nc2cc(Cn3cc(Cl)c(CO)n3)c(F)cc21", "note": "[Example 71, (S)-7-((4-chloro-3-(hydroxymethyl)-1H-pyrazol-1-yl)methyl)-4-(cyclopropylethynyl)-4-(1,1-difluoroethyl)-6-fluoro-3,4-dihydroquinazolin-2(1H)-one]", "EC50": 30},
      {"smiles": "CC(F)(F)[C@@]1(C#CC2CC2)NC(=O)Nc2cc(Cn3cc(-c4ccncc4)cn3)c(F)cc21", "note": "[Example 10, (S)-4-(cyclopropylethynyl)-4-(1,1-difluoroethyl)-6-fluoro-7-((4-(pyridin-4-yl)-1H-pyrazol-1-yl)methyl)-3,4-dihydroquinazolin-2(1H)-one]", "EC50": 37.2},
      {"smiles": "O=C1Nc2cc(Cn3ccc4c3CCNC4=O)c(F)cc2[C@@](C#CC2CC2)(C(F)(F)F)N1", "note": "[Example 98, (S)-4-(cyclopropylethynyl)-6-fluoro-7-((4-oxo-4,5,6,7-tetrahydro-1H-pyrrolo[3,2-c]pyridin-1-yl)methyl)-4-(trifluoromethyl)-3,4-dihydroquinazolin-2(1H)-one]", "EC50": 65.4},
      {"smiles": "CC(F)(F)[C@@]1(C#CC2CC2)NC(=O)Nc2cc(Cn3ccc(CO)n3)c(Cl)cc21", "note": "[Example 48, (S)-6-chloro-4-(cyclopropylethynyl)-4-(1,1-difluoroethyl)-7-((3-(hydroxymethyl)-1H-pyrazol-1-yl)methyl)-3,4-dihydroquinazolin-2(1H)-one]", "EC50": 29.6},
      {"smiles": "O=C1Nc2cc(CN3C(=O)CNC3=O)c(F)cc2[C@@](C#CC2CC2)(C(F)(F)F)N1", "note": "[Example 29, (S)-3-((4-(cyclopropylethynyl)-6-fluoro-2-oxo-4-(trifluoromethyl)-1,2,3,4-tetrahydroquinazolin-7-yl)methyl)imidazolidine-2,4-dione]", "EC50": 27.4},
      {"smiles": "CC(F)(F)[C@@]1(C#CC2CC2)NC(=O)Nc2cc(Cn3ccc(C#N)n3)c(F)cc21", "note": "[Example 17, (S)-1-((4-(cyclopropylethynyl)-4-(1,1-difluoroethyl)-6-fluoro-2-oxo-1,2,3,4-tetrahydroquinazolin-7-yl)methyl)-1H-pyrazole-3-carbonitrile]", "EC50": 46.3},
      {"smiles": "CC(F)(F)[C@@]1(C#CC2CC2)NC(=O)Nc2cc(Cn3cnc4ccccc43)c(F)cc21", "note": "[Example 94, (S)-7-((1H-benzo[d]imidazol-1-yl)methyl)-4-(cyclopropylethynyl)-4-(1,1-difluoroethyl)-6-fluoro-3,4-dihydroquinazolin-2(1H)-one]", "EC50": 44.2},
      {"smiles": "Cc1ccn(Cc2cc3c(cc2F)[C@@](C#CC2CC2)(C(F)(F)F)NC(=O)N3)n1", "note": "[Example 101, (S)-4-(cyclopropylethynyl)-6-fluoro-7-((3-methyl-1H-pyrazol-1-yl)methyl)-4-(trifluoromethyl)-3,4-dihydroquinazolin-2(1H)-one]", "EC50": 13.8}
    ]}
  ]
}
